This note sets out measurements from ChEMBL document CHEMBL4482323, “Novel heterocyclic compound, method for preparing same, and pharmaceutical composition comprising same as active ingredient for preventing or treating cancer” (2017).

Bounds are passed on as bounds.

The target in experiment [1] is SUMO-activating enzyme (Homo sapiens, UniProt Q9UBT2). As to the kind of experiment: Inhibition of SAE (unknown origin) using recombinant His-tagged human SUMO1 measured after 2 hrs by HTRF assay. Format: protein-complex assay. (Time-resolved FRET reads energy transfer from a long-lived donor to a nearby acceptor.)
Sequence of SUMO-activating enzyme (Q9UBE0 whole entry): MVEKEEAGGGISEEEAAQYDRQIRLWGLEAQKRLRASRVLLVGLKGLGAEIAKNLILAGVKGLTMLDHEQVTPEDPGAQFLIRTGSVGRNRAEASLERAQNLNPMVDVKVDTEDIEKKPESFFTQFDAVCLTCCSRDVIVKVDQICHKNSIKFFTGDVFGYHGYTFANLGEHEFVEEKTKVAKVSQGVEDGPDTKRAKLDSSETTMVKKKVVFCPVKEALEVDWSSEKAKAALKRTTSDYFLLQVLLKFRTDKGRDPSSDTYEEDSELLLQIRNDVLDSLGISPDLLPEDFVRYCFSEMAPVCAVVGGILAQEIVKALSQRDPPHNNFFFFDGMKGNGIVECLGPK
Sequence of SUMO-activating enzyme (Q9UBT2 whole entry): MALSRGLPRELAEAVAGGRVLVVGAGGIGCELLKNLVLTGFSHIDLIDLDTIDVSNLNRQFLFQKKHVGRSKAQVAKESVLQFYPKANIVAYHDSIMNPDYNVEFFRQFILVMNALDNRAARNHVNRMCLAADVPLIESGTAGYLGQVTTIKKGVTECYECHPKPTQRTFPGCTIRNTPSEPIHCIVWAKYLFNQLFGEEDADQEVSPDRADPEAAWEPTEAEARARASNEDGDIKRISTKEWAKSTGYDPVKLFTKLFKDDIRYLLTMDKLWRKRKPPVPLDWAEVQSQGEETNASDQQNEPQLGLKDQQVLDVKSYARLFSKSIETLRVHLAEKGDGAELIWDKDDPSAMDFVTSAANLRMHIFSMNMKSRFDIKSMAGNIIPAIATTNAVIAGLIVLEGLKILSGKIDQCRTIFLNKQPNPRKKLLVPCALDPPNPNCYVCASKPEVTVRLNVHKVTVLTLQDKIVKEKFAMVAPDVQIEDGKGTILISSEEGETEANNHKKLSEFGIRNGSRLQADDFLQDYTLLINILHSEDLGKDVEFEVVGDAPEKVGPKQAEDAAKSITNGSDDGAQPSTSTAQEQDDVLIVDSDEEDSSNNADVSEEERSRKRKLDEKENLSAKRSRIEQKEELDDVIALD
The target of experiment [2] is T1, NEDD8 activating enzyme (Homo sapiens, UniProt Q8TBC4).
T1 sequence (Q8TBC4 whole entry): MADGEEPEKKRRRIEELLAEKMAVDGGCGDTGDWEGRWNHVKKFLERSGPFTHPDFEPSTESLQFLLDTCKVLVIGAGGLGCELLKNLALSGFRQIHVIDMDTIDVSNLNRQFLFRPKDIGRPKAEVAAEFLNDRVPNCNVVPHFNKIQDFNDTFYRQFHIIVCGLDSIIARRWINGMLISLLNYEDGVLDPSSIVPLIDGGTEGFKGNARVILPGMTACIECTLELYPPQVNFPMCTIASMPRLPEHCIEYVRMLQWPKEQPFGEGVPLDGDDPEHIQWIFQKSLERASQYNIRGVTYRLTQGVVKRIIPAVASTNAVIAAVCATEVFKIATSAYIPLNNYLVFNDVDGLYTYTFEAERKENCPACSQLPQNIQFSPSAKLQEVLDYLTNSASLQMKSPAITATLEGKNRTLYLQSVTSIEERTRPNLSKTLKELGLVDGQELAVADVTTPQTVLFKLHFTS
T1 sequence (Q13564 whole entry): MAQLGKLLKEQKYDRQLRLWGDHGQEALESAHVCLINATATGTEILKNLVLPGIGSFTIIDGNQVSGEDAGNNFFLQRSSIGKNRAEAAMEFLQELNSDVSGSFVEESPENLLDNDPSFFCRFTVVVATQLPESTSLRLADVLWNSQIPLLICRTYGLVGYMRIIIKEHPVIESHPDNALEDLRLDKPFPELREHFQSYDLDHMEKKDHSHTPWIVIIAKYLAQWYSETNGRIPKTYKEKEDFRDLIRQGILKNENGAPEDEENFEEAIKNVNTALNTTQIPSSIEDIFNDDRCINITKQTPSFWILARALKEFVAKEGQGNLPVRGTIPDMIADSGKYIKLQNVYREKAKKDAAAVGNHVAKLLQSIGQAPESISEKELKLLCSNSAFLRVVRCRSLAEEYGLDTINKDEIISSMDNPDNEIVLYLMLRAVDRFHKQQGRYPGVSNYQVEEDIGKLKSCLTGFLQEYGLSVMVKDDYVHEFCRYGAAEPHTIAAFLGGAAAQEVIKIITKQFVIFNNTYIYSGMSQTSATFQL
Briefly: Inhibition of NAE (unknown origin) using GST-tagged Ubc12 and Flag-tagged Nedd8 measured after 2 hrs by TR-FRET assay. Format: protein-complex assay.

Experiment [3] relates to HCT-116. As to the kind of experiment: Antiproliferative activity against human HCT116 cells after 48 hrs by CCK8 assay. In kind it is functional. The settings on record: HCT-116, 48 h, read-out: LD50 (the source's name). (Tetrazolium dyes change colour on reduction, which living cells bring about.)
Experiment [4] relates to THP-1. As to the kind of experiment: Antiproliferative activity against human THP1 cells after 48 hrs by CCK8 assay. Format: functional. The settings on record: THP-1, 48 h, read-out: LD50 (the source's name).

By IC50 is commonly meant the concentration that gives 50% inhibition. With `NS(=O)(=O)OC[C@H]1C[C@@H](Nc2ncncc2C(=O)c2cn(Cc3cccc(C(F)(F)F)c3)c3ccccc23)[C@H](O)[C@@H]1O`, the IC50 in experiment [1] is 3.18 µM; in experiment [2], 0.012 µM. Also, the values for the CC50 in experiment [3] and in experiment [4] were 1.24 µM and 1.28 µM, respectively.

`Cc1cccc(Cn2cc(C(=O)c3cncnc3N[C@@H]3C[C@H](COS(N)(=O)=O)[C@@H](O)[C@H]3O)c3cc(F)ccc32)c1`: the IC50 in experiment [1] was 0.68 µM.

As to `COc1cccc(Cn2cc(C(=O)c3cncnc3N[C@@H]3C[C@H](COS(N)(=O)=O)[C@@H](O)[C@H]3O)c3ccccc32)c1`, the IC50 in experiment [1] stood at 0.04 µM; in experiment [2], 0.022 µM. For the same compound, the CC50 is 0.431 µM in experiment [3] and less than 0.03 µM in experiment [4].

With `N#Cc1cccc(Cn2cc(C(=O)c3cncnc3N[C@@H]3C[C@H](COS(N)(=O)=O)[C@@H](O)[C@H]3O)c3ccccc32)c1`, the CC50 in experiment [3] is 15.1 µM; in experiment [4] it was 13.2 µM.

For the compound `NS(=O)(=O)OC[C@H]1C[C@@H](Nc2ncncc2C(=O)c2cn(Cc3ccc(C(F)(F)F)o3)c3ccccc23)[C@H](O)[C@@H]1O`, the IC50 in experiment [1] amounted to 1.29 µM. In addition, the CC50 in experiment [3] stood at 2.01 µM; in experiment [4], 0.813 µM.

Turning to `NS(=O)(=O)OC[C@H]1C[C@@H](Nc2ncncc2C(=O)c2cn(Cc3cccc(F)c3)c3ccccc23)[C@H](O)[C@@H]1O`, the IC50 in experiment [1] amounted to 1.65 µM; in experiment [2], 0.091 µM. Further, the CC50 is 0.456 µM in experiment [3] and less than 0.03 µM in experiment [4].

For `Cc1c(Cn2cc(C(=O)c3cncnc3N[C@@H]3C[C@H](COS(N)(=O)=O)[C@@H](O)[C@H]3O)c3cc(F)ccc32)cccc1C(F)(F)F`, the IC50 came out at 0.99 µM in experiment [1] and 0.112 µM in experiment [2].

For the compound `NS(=O)(=O)OC[C@H]1C[C@@H](Nc2ncncc2C(=O)c2cn(Cc3ccccc3F)c3ccccc23)[C@H](O)[C@@H]1O`, in experiment [1], the concentration for half-maximal inhibition (IC50) worked out at 2.88 µM. Moreover, the CC50 in experiment [3] amounted to 3.12 µM; in experiment [4], 1 µM.

Regarding `Cc1cc(Cn2cc(C(=O)c3cncnc3N[C@@H]3C[C@H](COS(N)(=O)=O)[C@@H](O)[C@H]3O)c3cc(F)ccc32)ccc1F`, the values for the IC50 in experiment [1] and in experiment [2] were 1.72 µM and 0.015 µM, respectively.

`NS(=O)(=O)OC[C@H]1C[C@@H](Nc2ncncc2C(=O)c2cn(Cc3cc(Cl)ccc3Cl)c3ccccc23)[C@H](O)[C@@H]1O` registered an IC50 in experiment [2] of 0.037 µM. The CC50 in experiment [3] turned out to be 0.643 µM; in experiment [4], 0.662 µM.

With `NS(=O)(=O)OC[C@H]1C[C@@H](Nc2ncncc2C(=O)c2nn(Cc3cccc(Br)c3)c3ccccc23)[C@H](O)[C@@H]1O`, the IC50 in experiment [1] was found to be 1.7 µM.

`NS(=O)(=O)OC[C@H]1C[C@@H](Nc2ncncc2C(=O)c2cn(Cc3cccc(Cl)c3)c3ccccc23)[C@H](O)[C@@H]1O`: the IC50 in experiment [1] turned out to be 0.46 µM; in experiment [2], 0.019 µM. Further, the CC50 is 0.79 µM in experiment [3] and 0.6 µM in experiment [4].

In the case of `NS(=O)(=O)OC[C@H]1C[C@@H](Nc2ncncc2C(=O)c2cn(Cc3cccc(Br)c3)c3ncccc23)[C@H](O)[C@@H]1O`, the IC50 in experiment [1] is 0.661 µM. In addition, the CC50 was 2.01 µM in experiment [3] and 0.813 µM in experiment [4].

`NS(=O)(=O)OC[C@H]1C[C@@H](Nc2ncncc2C(=O)c2cn(Cc3ccccc3)c3ccccc23)C[C@@H]1O`: the figures for the IC50 in experiment [1] and in experiment [2] were 0.56 µM and 0.0006 µM, respectively.

As for `NS(=O)(=O)OC[C@H]1C[C@@H](Nc2ncncc2C(=O)c2cn(Cc3ccc(F)c(F)c3)c3ccccc23)[C@H](O)[C@@H]1O`, the figures for the IC50 in experiment [1] and in experiment [2] were 3.48 µM and 0.02 µM, respectively. The figures for the CC50 in experiment [3] and in experiment [4] were 2.28 µM and 1.81 µM, respectively.

With `NS(=O)(=O)OC[C@H]1C[C@@H](Nc2ncncc2C(=O)c2cn(CC3CCCCC3)c3ccccc23)[C@H](O)[C@@H]1O`, the IC50 in experiment [1] was found to be 1.65 µM.

Consider `NS(=O)(=O)OC[C@H]1C[C@@H](Nc2ncncc2C(=O)c2cn(Cc3ccc4ccccc4c3)c3ccc(F)cc23)[C@H](O)[C@@H]1O`, for which the IC50 in experiment [2] came to 0.141 µM.

As for `NS(=O)(=O)OC[C@H]1C[C@@H](Nc2ncncc2C(=O)c2cn(Cc3ccc(S(F)(F)(F)(F)F)cc3)c3ccc(F)cc23)[C@H](O)[C@@H]1O`, the IC50 in experiment [2] was found to be 0.01 µM.

In the case of `NS(=O)(=O)OC[C@H]1C[C@@H](Nc2ncncc2C(=O)c2cn(Cc3cccc(Br)c3)c3ccccc23)[C@H](O)[C@@H]1O`, the IC50 in experiment [1] was 0.1 µM. Besides, the CC50 in experiment [3] was found to be 0.934 µM; in experiment [4], 0.223 µM.

On to `NS(=O)(=O)OC[C@H]1C[C@@H](Nc2ncncc2C(=O)c2cn(Cc3ccccc3)c3ccccc23)[C@H](O)[C@@H]1O`, for which the IC50 in experiment [1] is 0.12 µM; in experiment [2], 0.005 µM. Besides, the results for the CC50 in experiment [3] and in experiment [4] were 0.228 µM and less than 0.03 µM, respectively.

Regarding `NS(=O)(=O)OC[C@H]1C[C@@H](Nc2ncncc2C(=O)c2cn(Cc3cc(C(F)(F)F)cc(C(F)(F)F)c3)c3ccccc23)[C@H](O)[C@@H]1O`, the figures for the CC50 in experiment [3] and in experiment [4] were 4.12 µM and 2.78 µM, respectively.

Consider `NS(=O)(=O)OC[C@H]1C[C@@H](Nc2ncncc2C(=O)c2cn(Cc3cccc(N4CCOCC4)c3)c3ccc(F)cc23)[C@H](O)[C@@H]1O`, for which the IC50 was greater than 10 µM in experiment [1] and 0.013 µM in experiment [2].

In the case of `NS(=O)(=O)OC[C@H]1C[C@@H](Nc2ncncc2C(=O)c2cn(Cc3cccc(Br)c3)c3ccc(F)cc23)[C@H](O)[C@@H]1O`, the half-inhibitory concentration (IC50) worked out at 0.53 µM in experiment [1] and 0.0009 µM in experiment [2]. The CC50 in experiment [3] turned out to be 1.01 µM; in experiment [4], 0.896 µM.

With `NS(=O)(=O)OC[C@H]1C[C@@H](Nc2ncncc2C(=O)c2cn(Cc3ccc(F)cc3F)c3ccccc23)[C@H](O)[C@@H]1O`, the figures for the IC50 in experiment [1] and in experiment [2] were 0.03 µM and 0.008 µM, respectively. Also, the CC50 stood at 1.48 µM in experiment [3] and 1.56 µM in experiment [4].

Turning to `Cc1cccc(Cn2cc(C(=O)c3cncnc3N[C@@H]3C[C@H](COS(N)(=O)=O)[C@@H](O)[C@H]3O)c3ccccc32)n1`, the IC50 in experiment [1] amounted to 2.21 µM. For the same compound, the results for the CC50 in experiment [3] and in experiment [4] were 0.413 µM and 0.0553 µM, respectively.

Regarding `NS(=O)(=O)OC[C@H]1C[C@@H](Nc2ncncc2C(=O)c2cn(Cc3ccccc3)c3ccccc23)[C@@H](F)[C@@H]1O`, the IC50 in experiment [1] came out at 1.84 µM.

On to `NS(=O)(=O)OC[C@H]1C[C@@H](Nc2ncncc2C(=O)c2cn(Cc3ccc(F)c(Cl)c3)c3ccccc23)[C@H](O)[C@@H]1O`, for which the IC50 in experiment [1] was 1.6 µM. Besides, the CC50 came to 1.8 µM in experiment [3] and 1.43 µM in experiment [4].

As for `NS(=O)(=O)OC[C@H]1C[C@@H](Nc2ncncc2C(=O)c2cn(Cc3cccc(I)c3)c3ccccc23)[C@H](O)[C@@H]1O`, the IC50 in experiment [1] was found to be 0.47 µM. For the same compound, the values for the CC50 in experiment [3] and in experiment [4] were 0.587 µM and 0.163 µM, respectively.

With `C/C=C/Cn1cc(C(=O)c2cncnc2NC2C[C@H](COS(N)(=O)=O)[C@@H](O)[C@H]2O)c2ccccc21` (single isomer, unassigned), in experiment [1], the IC50 is 1.86 µM.
